Consider two molecules from patent US20110039946A1, “METHOD OF IMPROVING ATOPIC DERMATOLOGICAL DISEASES, IN WHICH A COMPOSITION COMPRISING MAGNOLOL, HONOKIOL OR A COMBINATION THEREOF IS ADMINISTERED TO A PATIENT WITH ATOPIC DERMATOLOGICAL DISEASES” (BIOSPECTRUM, INC., priority 2007, published 2011).

The test system of experiment [1] is Staphylococcus aureus. In words: filter-paper disk agar diffusion (Kirby-Bauer) antibacterial activity. It counts as cell-based. Particulars: S. aureus; for Diameter of clear zone: filter disk 10 mm. As for the experimental part:
The standardized filter-paper disk agar diffusion method was used to determine the antibacterial activity of magnolol and honokiol against Staphylococcus aureus. This method was also well-known as Kirby-Bauer method, and has been widely used to determine the antibacterial activity (see, European Journal of Pharmacology, Junho Park et al, 2004, 496(1-3), 189-195). Briefly, Staphylococcus aureus cells were incubated with brain heart infusion (BHI) broth at 37° C. under anaerobic conditions until they reach the stationary phase. Approximately 1×10^6 bacteria cells were mixed with 7 ml of BHI agar medium containing 0.8% phytoagar and then, poured on the agar plate containing 1.5% phytoagar. The filter-paper discs (10 mm diameter) were treated with magnolol and honokiol at respective test concentrations, and then placed on the BHI agar plate inoculated with the test bacteria. The plate was incubated at 37° C. for 24 hours under anaerobic conditions, and then the antibacterial activity was determined by measuring the size of clear zone (growth inhibition halo) around the disk. The size of clear zone has the functional relation with the logarithmic value of magnolol or honokiol concentration, from which the standard calibration curve could be derived (FIG. 1). The unknown concentration of the test sample can be determined from this standard calibration curve. […] The antibacterial activity was remarkable at 6.25 μg/disk (0.39 mM) for honokiol and 12.5 μg/disk (0.78 mM) for magnolol (Table 1).
In general terms: In agar diffusion tests the substance spreads into inoculated agar from a disc or well.

In experiment [2] the test system is patients suffering from mild or moderate atopic dermatitis. In words: clinical evaluation of skin topical preparations in atopic dermatitis (EASI, pruritus). It counts as in vivo, human. The conditions noted are these: applied as 1% cream; 2 and 4 weeks. How it is done:
The cosmetic compositions for atopy containing magnolol, honokiol and pimecrolimus, respectively were prepared with the contents of components as listed in the following Table 3, according to the conventional method. In the following Table 3, the control group is for the skin topical preparation with no antibacterial and anti-inflammatory substance, and the test groups 1, 2 and 3 are for the cosmetic compositions for skin topical use to treat atopy containing magnolol, honokiol and pimecrolimus, respectively.
To prepare the skin topical preparation purified water, glycerin and butylene glycol were mixed and dissolved at 70° C. (aqueous part), and the remaining components except for the three components and trimethanolamine were dissolved at 70° C. (oil part). The oil part was added to the aqueous part and stirred with a homomixer (from Tokushu Kika Kogyo, Co., Ltd. In Japan) to induce the first emulsification to which trimethanolamine was finally added. […]
1) The symptoms and extent of atopic dermatitis were objectively determined using EASI (Eczema Area Severity Index) as follows, before treatment and 2 and 4 weeks after treatment. […]
EASI score and pruritus score were compared and evaluated by applying Kruskall-Wallis one-way ANOVA method as the basic statistical method before treatment and 2 and 4 weeks after treatment. […]

Experiment [3] has as its system Staphylococcus aureus. The experiment can be described thus: Minimum Bacteriocidal Concentration / kinetics of bacterial killing. It counts as cell-based. As for the experimental part: The inhibition of bacterial growth with a certain substance is the result obtained by inhibiting the proliferation of respective cells or killing the cells. […] The following experiment was conducted to determine the Minimum Bacteriocidal Concentration (MBC). First, the same procedures as the determination of MIC were conducted in the liquid culture medium, and then a portion of the culture medium in the test tube in which no proliferation was shown was taken, diluted to remove magnolol and honokiol therefrom, and then incubated on the solid culture medium and observed for the colony formation after 24 hours. At this time, MBC means the minimum value of magnolol or honokiol concentration in the original culture solution in the plate medium on which no colony was produced. To determine MBC of magnolol and honokiol Staphylococcus aureus was used, and magnolol or honokiol was applied at the concentration one, five and 10 times as high as MIC concentration thereof to determine the kinetics of bacterial killing. The survival rate of microbes was determined within 2 hours.

Experiment [4] concerns Staphylococcus aureus. The experiment can be described thus: Minimum Inhibitory Concentration, two-fold serial dilution. It counts as cell-based. Particulars: 24 h, read-out: MIC of agents. As for the experimental part:
The test was conducted to determine the Minimum Inhibitory Concentrations (MIC) of magnolol and honokiol. Staphylococcus aureus incubated for 24 hours was introduced into 3 ml of brain heart infusion broth, and at the same time, magnolol and honokiol were respectively added thereto, and then incubated for 24 hours at 37° C. under anaerobic conditions. To determine MICs of honokiol and magnolol the two-fold serial dilution method was used. As used herein, MIC is defined as the minimum concentration at which the growth of microorganism is inhibited. As presented in Table 2, it could be confirmed that MICs of magnolol and honokiol for Staphylococcus aureus were 6 μg/ml and 2 μg/ml, respectively. That is, it can be seen that the antibacterial activity of honokiol is higher than that of magnolol.

The test system of the next experiment is interleukin-8. The experiment can be described thus: interleukin-8 production induced by heat-inactivated Staphylococcus aureus in THP-1 cells (ELISA). It counts as cell-based, human. Particulars: heat-inactivated S. aureus 100 μg/ml, 48 hours. As for the experimental part:
In general, the inflammatory response generated by bacteria or bacterial components is mediated by proinflammatory cytokines. To determine whether magnolol or honokiol can inhibit the inflammatory response generated by Staphylococcus aureus ELISA for interleukin-8 and TNF-alpha was conducted. For this purpose, THP-1 cell line as human monocyte cell line was used. 1×10^6 THP-1 cells were incubated for 14 hours under serum-free conditions, and then treated with heat-inactivated Staphylococcus aureus 100 μg/ml alone or simultaneously with magnolol and honokiol, respectively, which was then incubated for 48 hours. The amounts of interleukin-8 and TNF-alpha secreted into cell culture medium were measured by means of ELISA kit (Genzyme, Minneapolis, Minn.).
Background: An ELISA detects its analyte on a solid surface through an enzyme-linked reagent.

The next experiment has as its system TNF-alpha. The experiment can be described thus: TNF-alpha production induced by heat-inactivated Staphylococcus aureus in THP-1 cells (ELISA). It counts as cell-based, human. Particulars: heat-inactivated S. aureus 100 μg/ml, 48 hours.

Read-outs that look alike come from different tables or passages of the source.

Protocol for TNF-alpha: In addition, the experiment was conducted to identify the synergistic anti-inflammatory effect when magnolol and honokiol are combined in a certain ratio. The efficacy to inhibit the production of TNF-alpha was examined in cases where the combined ratio of magnolol and honokiol is 1 (7.5 μM):1 (7.5 μM), 1 (5 μM):2 (10 μM), and 2(10 μM):1 (5 μM) or in case of treating with 15 μM of magnolol alone or 15 μM of honokiol alone.

`CC[C@H]1OC(=O)[C@H](C)[C@@H](O[C@H]2C[C@@](C)(OC)[C@@H](O)[C@H](C)O2)[C@H](C)[C@@H](O[C@@H]2O[C@H](C)C[C@H](N(C)C)[C@H]2O)[C@](C)(O)C[C@@H](C)C(=O)[C@H](C)[C@@H](O)[C@]1(C)O` [Erythromycin, reference compound]: the “Diameter of clear zone” value in the experiment on Staphylococcus aureus [1] (6.25 mg/disk (footnote a)) was 35 ± 2.2^c mm; in the experiment with Staphylococcus aureus [1] (12.5 mg/disk (footnote a)) it was 42 ± 3.8^c mm; with Staphylococcus aureus [1] (25 mg/disk (footnote a)) it was 45 ± 2.5^c mm; in the experiment on Staphylococcus aureus [1] (50 mg/disk (footnote a)), 48 ± 5^c mm.

What is called MIC is the lowest concentration that inhibits growth of the organism. In the case of `C=CCc1ccc(O)c(-c2cc(CC=C)ccc2O)c1` [Magnolol, 5,5′-di-2-propenyl-1,1′-biphenyl-2,2′-diol], the “amount at which the antibacterial activity was remarkable” value in the experiment with Staphylococcus aureus [1] (disk diffusion) is 12.5 μg/disk. In addition, the “concentration at which the antibacterial activity was remarkable” value with Staphylococcus aureus [1] (disk diffusion, printed in brackets after μg/disk) came to 0.78 mM. The figures for the “Diameter of clear zone” value in the experiment on Staphylococcus aureus [1] (12.5 mg/disk (footnote a)), in the experiment on Staphylococcus aureus [1] (25 mg/disk (footnote a)) and in the experiment on Staphylococcus aureus [1] (50 mg/disk (footnote a)) were 11 ± 0.4^c mm, 15 ± 0.2^c mm and 18 ± 0.2^c mm, respectively. Further, the “pruritus accompanied by atopic dermatitis (visual analog scale)” value in experiment [2] was “significantly improved”. Further, the “concentration at which Staphylococcus aureus was completely exterminated within 10 minutes” value stood at 45 µg/mL in the experiment with Staphylococcus aureus [3] and 169.2 µM in the experiment with Staphylococcus aureus [3] (printed in brackets after μg/ml). The MIC with Staphylococcus aureus [4] came to 6 µg/mL. Also, in the experiment on interleukin-8, the “production of interleukin-8 induced by Staphylococcus aureus” value is on record as “reduced”. Moreover, in the experiment on TNF-alpha, the “production of TNF-alpha induced by Staphylococcus aureus” value was “reduced”.
